Experimental data as given in US20070142401A1, “Indolyl-pyrroledione derivatives for the treatment of neurological and vascular disorders related to beta-amyloid generation and/or aggregation” (NOVARTIS AG, priority 2003, published 2007).

What was measured:
PKC alpha = PKC alpha (Homo sapiens, UniProt P17252); assay: cell-free enzyme assay PKC alpha; assay type: biochemical
Flt-4 = Flt-4 (Homo sapiens, UniProt P35916); assay: cell-free enzyme assay Flt-4; assay type: biochemical
PKC beta = PKC beta (Homo sapiens, UniProt P05771); assay: cell-free enzyme assay PKC beta; assay type: biochemical
[1] = tested on: Aβ secretion in HEK/APPswe cells; assay: Aβ secretion in HEK/APPswe cell culture medium (sandwich ELISA); assay type: cell-based; conditions: HEK/APPswe cell cultures, 24 hours after compound addition
Protocol: HEK/APPswe cells are plated in microtiter plates precoated with 10 μg/ml poly-D-lysine at 12′000 cells/well in 100 μl/well DMEM medium supplemented with 10% FCS, 0.25 mg/ml G418 sulfate, 1% penicillin streptomycin. The following day, supernatant is replaced with 90 μl/well of fresh medium and 10 μl/well of compound diluted in culture medium are added. Two types of control wells are used: cell culture medium without cells plus 10 μl/well of all compound dilutions (background signals) and cell culture medium from untreated cells (positive control). 24 hours later after compound addition, conditioned medium is collected and Aβ levels determined by a specific sandwich ELISA.
For the sandwich ELISA, the maxisorp microtiterplates are coated overnight at 4° C. with 100 μl/well of the monoclonal antibody 25H 10 diluted 1:1000 in PB for Aβ40 detection or monoclonal antibody B10E7 diluted 1:2750 for detection of Aβ42. […] After 1 hour incubation at room temperature wells are washed as described above and alkaline phosphatase activity is determined by adding 100 μl/well of diethanolamine buffer, pH 9.8 (100 mM diethanolamine, 1 mM MgCl2, pH adjusted to 9.8 with 2 M HCl) containing the chemiluminescent CSPD substrate (25 mM stock solution diluted 1:416) and the enhancer Emerald II (diluted 1:10). […] Samples are measured in triplicate. […]

PKC epsilon = molecular target: T1, PKC epsilon (Homo sapiens, UniProt Q02156); assay: cell-free enzyme assay PKC epsilon; assay type: biochemical
T1 sequence (Q02156 1-737): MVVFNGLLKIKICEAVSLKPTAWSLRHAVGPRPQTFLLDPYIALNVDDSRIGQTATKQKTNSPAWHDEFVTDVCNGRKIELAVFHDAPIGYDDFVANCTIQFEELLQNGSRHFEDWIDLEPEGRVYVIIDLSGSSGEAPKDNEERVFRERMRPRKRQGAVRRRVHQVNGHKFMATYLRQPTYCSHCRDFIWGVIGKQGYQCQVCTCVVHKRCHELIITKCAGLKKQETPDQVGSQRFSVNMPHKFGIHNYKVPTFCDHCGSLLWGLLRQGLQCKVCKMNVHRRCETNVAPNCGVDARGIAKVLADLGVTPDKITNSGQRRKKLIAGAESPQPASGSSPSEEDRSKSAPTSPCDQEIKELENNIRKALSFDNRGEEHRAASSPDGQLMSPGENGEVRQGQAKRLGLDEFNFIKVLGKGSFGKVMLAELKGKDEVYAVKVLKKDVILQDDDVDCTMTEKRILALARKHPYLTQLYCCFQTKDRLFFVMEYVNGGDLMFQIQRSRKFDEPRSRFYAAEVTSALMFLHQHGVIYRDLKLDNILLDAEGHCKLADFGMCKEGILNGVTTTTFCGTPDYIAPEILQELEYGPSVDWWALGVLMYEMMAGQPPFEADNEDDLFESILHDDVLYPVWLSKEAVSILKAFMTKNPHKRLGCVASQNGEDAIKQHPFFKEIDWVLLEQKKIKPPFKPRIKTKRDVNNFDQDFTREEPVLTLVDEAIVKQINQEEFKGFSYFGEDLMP

PKC theta = PKC theta (Homo sapiens, UniProt Q04759); assay: cell-free enzyme assay PKC theta; assay type: biochemical
Flt-3 = molecular target: T2, Flt-3 (Homo sapiens, UniProt P36888); assay: cell-free enzyme assay Flt-3; assay type: biochemical
T2 sequence (P36888 27-993): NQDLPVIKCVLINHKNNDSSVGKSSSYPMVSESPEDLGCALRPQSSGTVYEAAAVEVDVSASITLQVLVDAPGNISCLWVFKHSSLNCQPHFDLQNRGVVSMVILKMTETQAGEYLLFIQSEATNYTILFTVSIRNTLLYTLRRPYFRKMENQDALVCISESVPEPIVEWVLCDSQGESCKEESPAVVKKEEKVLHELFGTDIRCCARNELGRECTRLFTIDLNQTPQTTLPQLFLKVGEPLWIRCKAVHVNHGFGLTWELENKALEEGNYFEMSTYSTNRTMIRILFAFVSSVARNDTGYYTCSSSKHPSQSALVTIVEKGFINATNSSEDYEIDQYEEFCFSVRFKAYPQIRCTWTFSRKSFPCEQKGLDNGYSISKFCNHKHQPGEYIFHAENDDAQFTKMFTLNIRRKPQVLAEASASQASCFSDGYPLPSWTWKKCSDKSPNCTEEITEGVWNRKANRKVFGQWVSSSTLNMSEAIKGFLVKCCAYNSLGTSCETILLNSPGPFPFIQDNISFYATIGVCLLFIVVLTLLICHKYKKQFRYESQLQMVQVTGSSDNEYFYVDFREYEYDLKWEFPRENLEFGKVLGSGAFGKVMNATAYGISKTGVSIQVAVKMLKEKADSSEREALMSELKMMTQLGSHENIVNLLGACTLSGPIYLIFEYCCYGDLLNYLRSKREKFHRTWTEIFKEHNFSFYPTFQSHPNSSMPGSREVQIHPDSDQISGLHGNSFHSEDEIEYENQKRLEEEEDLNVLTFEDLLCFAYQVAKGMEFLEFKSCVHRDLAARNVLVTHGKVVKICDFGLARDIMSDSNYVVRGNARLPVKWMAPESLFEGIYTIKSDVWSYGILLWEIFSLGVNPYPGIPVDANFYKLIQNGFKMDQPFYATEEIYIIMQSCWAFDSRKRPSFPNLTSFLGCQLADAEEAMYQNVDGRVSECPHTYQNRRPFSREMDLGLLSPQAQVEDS

CDK-1 = CDK-1 (Homo sapiens, UniProt P06493); assay: cell-free enzyme assay CDK-1; assay type: biochemical
HEK/APPswe cells = assay: MTS assay (cytotoxicity); assay type: cell-based; conditions: at concentrations below 1 microM
Protocol: To determine cytotoxicity, cells are tested by the MTS colorimetric kit performed essentially according to the manufacturer's specifications (Promega, #G5430X). After collecting the conditioned medium for the sandwich ELISA, the rest of the conditioned medium is removed completely and replaced with 100 μl/well culture medium containing one fifth of MTS solution prepared as recommended in the kit. After 3 hours incubation at 37° C., absorbance is read at an OD of 490 nm with a reference wavelength set to 630 nm. Values are given as % metabolic rate (n=6). The 0% value is calculated from wells which had no cells, 100% from wells with an untreated cell layer

KDR = KDR (Homo sapiens, UniProt P35968); assay: cell-free enzyme assay KDR; assay type: biochemical
Flt-1 = Flt-1 (Homo sapiens, UniProt P17948); assay: cell-free enzyme assay Flt-1; assay type: biochemical
Flt-2 = Flt-2 (Homo sapiens, UniProt P11362); assay: cell-free enzyme assay Flt-2; assay type: biochemical
PKC gamma = PKC gamma (Homo sapiens, UniProt P05129); assay: cell-free enzyme assay PKC gamma; assay type: biochemical

Chain of CDK-1 (P06493 whole entry, species assumed): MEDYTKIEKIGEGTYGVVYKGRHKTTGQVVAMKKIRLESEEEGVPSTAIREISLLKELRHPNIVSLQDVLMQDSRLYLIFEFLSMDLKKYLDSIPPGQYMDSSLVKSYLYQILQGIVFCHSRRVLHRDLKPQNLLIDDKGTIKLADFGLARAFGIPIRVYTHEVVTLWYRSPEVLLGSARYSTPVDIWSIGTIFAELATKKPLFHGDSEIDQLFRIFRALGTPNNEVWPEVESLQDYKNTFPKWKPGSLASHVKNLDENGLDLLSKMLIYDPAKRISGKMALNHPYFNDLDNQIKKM
Chain of CDK-1 (P14635 whole entry partner, species assumed): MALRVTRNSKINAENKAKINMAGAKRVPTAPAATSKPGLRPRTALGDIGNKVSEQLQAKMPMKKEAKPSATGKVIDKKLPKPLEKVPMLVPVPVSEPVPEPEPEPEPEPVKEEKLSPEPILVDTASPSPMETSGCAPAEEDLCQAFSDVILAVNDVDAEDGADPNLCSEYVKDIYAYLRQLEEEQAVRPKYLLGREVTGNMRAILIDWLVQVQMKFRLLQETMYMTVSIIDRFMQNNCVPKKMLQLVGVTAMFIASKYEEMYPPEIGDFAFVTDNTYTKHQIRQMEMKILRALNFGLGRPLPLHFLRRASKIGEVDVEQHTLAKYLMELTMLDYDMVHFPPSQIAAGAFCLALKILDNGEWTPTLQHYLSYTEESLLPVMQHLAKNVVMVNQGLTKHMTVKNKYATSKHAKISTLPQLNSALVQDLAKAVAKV
Chain of PKC theta (Q04759 whole entry): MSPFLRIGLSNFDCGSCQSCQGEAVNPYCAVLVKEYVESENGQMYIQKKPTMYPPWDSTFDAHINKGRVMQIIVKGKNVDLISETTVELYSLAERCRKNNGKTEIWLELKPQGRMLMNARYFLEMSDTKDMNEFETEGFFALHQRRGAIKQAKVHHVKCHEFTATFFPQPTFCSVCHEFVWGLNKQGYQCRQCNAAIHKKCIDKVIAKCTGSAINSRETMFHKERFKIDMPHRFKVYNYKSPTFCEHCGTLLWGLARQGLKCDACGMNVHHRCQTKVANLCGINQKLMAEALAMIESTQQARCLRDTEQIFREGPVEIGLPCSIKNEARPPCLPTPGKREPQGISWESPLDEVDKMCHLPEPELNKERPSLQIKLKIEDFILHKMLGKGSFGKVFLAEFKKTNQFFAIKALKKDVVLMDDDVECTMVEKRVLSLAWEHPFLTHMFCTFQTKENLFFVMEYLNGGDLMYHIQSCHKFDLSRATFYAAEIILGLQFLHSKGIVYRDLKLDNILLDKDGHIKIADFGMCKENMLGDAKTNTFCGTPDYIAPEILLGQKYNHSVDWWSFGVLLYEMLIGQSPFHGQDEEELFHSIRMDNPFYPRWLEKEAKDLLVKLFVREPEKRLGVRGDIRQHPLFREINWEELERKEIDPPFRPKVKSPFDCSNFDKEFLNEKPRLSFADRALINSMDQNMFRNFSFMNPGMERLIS
Chain of Flt-1 (P17948 27-1338, species assumed): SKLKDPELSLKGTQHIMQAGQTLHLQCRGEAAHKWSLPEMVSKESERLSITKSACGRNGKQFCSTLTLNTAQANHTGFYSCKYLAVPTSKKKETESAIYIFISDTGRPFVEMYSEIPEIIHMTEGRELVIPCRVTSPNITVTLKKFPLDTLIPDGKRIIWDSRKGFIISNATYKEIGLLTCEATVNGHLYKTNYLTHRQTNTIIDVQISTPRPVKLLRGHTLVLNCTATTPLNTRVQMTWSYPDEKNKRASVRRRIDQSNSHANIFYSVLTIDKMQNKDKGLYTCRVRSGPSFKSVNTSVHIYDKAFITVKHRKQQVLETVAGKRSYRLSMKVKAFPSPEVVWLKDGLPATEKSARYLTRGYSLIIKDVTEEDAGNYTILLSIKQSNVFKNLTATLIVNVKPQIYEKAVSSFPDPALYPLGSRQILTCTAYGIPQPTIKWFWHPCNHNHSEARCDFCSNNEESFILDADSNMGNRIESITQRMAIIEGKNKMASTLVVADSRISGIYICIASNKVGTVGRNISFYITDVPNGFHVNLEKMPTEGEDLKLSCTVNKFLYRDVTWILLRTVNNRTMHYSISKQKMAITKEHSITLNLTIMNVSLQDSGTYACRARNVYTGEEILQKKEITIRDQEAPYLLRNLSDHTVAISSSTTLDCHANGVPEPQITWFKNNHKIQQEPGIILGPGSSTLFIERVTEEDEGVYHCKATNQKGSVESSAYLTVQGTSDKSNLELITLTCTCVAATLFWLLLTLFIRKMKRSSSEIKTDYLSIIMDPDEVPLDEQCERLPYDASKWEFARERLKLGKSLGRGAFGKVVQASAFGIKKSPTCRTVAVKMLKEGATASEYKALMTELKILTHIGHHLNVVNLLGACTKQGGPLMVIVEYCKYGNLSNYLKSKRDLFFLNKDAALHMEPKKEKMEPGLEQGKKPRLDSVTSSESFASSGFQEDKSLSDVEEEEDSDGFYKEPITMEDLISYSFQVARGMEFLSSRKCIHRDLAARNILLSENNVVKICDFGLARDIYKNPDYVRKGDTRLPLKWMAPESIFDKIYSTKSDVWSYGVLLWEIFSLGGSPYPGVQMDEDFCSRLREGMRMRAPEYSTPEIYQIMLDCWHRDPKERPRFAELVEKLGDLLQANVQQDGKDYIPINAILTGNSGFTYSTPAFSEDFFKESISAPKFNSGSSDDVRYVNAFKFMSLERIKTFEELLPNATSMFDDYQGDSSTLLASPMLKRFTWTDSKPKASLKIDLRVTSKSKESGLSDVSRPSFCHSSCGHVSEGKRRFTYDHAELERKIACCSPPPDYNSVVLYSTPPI
Chain of Flt-4 (P35916 25-1363, species assumed): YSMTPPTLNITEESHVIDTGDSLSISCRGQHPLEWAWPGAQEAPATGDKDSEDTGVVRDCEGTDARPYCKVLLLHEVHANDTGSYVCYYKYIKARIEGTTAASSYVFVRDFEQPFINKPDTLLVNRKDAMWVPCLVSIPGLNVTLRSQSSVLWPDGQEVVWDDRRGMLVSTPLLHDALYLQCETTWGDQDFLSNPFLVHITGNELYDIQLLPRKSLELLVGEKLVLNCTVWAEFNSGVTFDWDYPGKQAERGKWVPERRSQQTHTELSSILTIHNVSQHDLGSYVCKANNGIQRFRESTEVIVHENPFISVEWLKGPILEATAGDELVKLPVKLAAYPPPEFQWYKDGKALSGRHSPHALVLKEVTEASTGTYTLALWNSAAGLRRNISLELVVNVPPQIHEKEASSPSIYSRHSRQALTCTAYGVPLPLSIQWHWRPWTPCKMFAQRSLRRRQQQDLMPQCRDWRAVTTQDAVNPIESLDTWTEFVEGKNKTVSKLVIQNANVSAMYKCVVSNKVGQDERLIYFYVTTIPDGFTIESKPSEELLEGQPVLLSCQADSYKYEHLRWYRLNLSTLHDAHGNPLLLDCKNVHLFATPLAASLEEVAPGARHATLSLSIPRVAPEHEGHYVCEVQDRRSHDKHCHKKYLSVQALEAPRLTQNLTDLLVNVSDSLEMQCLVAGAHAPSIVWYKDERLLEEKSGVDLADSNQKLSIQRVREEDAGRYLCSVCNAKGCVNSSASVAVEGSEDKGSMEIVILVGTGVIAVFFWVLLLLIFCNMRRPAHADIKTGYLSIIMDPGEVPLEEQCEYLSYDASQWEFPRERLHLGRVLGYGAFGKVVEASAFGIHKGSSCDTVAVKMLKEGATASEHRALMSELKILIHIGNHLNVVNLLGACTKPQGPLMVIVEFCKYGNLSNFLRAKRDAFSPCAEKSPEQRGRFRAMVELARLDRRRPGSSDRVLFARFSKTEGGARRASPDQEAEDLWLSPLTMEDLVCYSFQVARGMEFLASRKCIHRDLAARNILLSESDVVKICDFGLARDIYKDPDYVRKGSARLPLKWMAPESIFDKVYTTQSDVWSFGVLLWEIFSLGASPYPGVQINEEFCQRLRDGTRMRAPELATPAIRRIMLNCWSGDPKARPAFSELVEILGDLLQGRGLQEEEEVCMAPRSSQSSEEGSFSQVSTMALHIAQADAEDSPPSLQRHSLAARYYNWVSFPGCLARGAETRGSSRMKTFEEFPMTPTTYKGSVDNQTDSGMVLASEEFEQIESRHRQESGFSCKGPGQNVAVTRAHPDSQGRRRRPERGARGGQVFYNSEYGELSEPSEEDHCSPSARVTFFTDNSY

`CN1CCN(c2cc(C3=C(c4c[nH]c5ccccc45)C(=O)NC3=O)c(Cl)c(C(F)(F)F)c2)CC1` [Example 2, 3-[2-Chloro-5-(4-methyl-piperazin-1-yl)-3-trifluoromethyl-phenyl]-4-(1H-indol-3-yl)-pyrrole-2,5-dione] was tested, and the “activity in cell-free enzyme assay, PKC alpha” value (PKC alpha) was 21 nM, the “activity in cell-free enzyme assay, Flt-4” value (Flt-4) was <10 µM and the “activity in cell-free enzyme assay, PKC beta” value (PKC beta) was 30 nM. The “concentration giving a clear reduction of Aβ secretion in the medium” value [1] was “below 1 microM”, the “activity in cell-free enzyme assay, PKC epsilon” value (PKC epsilon) was 514 nM and the “activity in cell-free enzyme assay, PKC theta” value (PKC theta) was 186 nM. For the same compound, the “activity in cell-free enzyme assay, Flt-3” value (Flt-3) was <10 µM, the “activity in cell-free enzyme assay, CDK-1” value (CDK-1) was <10 µM and the “effect on cellular viability” value (HEK/APPswe cells) was “without having any effect on cellular viability”. For the same compound, the “activity in cell-free enzyme assay, KDR” value (KDR) was <10 µM, the “activity in cell-free enzyme assay, Flt-1” value (Flt-1) was <10 µM and the “activity in cell-free enzyme assay, Flt-2” value (Flt-2) was <10 µM. The “activity in cell-free enzyme assay, PKC gamma” value (PKC gamma) was <500 nM.
